Literature values, collected in patent publication US20040191345A1, “New formulations and use thereof” (priority 2003, published 2004).

Tests used:
[1] = n-octanol / phosphate buffer at pH 7.32
[2] = at room temperature

In the case of `Cc1ccc(O)c(C(CCN(C(C)C)C(C)C)c2ccccc2)c1` (stereo not drawn) [Tolterodine, N,N-diiso-propyl-3-(2-hydroxy-5-methylphenyl)-3-phenylpropanamine], the “partition coefficient (Log P)” value [1] is given as 1.83, the pKa value is given as 9.87 and the solubility in water [2] is given as “about 11 mg/ml”.
